Entries after “also recorded” stand apart in the source; their conditions may differ. Read-outs that look alike come from different tables or passages of the source. Blank lines part the entries; values can stand above or below the compound they belong to.
Target: T1, Human leukocyte elastase (HLE) (Homo sapiens, UniProt P08246)
T1 construct: purchased Elastin Products, St. Louis, Mo
T1 sequence (P08246 30-267): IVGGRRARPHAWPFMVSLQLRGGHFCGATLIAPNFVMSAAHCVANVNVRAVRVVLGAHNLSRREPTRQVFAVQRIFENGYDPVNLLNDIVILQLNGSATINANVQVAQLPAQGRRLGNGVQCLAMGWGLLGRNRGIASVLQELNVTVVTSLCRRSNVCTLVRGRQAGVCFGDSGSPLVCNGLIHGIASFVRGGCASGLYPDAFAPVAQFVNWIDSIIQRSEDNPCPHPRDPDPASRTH
Assay: Spectrophotometric assay of HLE inactivation (in vitro)
Type: biochemical
Method: The appropriate amount of inhibitor in acetonitrile was mixed with PPE in phosphate buffer solution and placed in a constant temperature bath. Aliquots were withdrawn at different time intervals and transferred to a cuvette containing 100 uL of substrate, 140 uL of acetonitrile, and 2 mL of phosphate buffer, pH 6.5. After incubating for 30 seconds, the absorbance change was monitored for two minutes at 347.5 nm. […] Controlled reactions for 100% PPE activity were run in the presence of acetonitrile. A similar procedure was followed for HLE.
The reaction of an irreversible inhibitor with PPE and HLE may be illustrated by the scheme shown below: [drawing 5] where EI is the noncovalently bound enzyme-inactivator complex and E-I is the final product with the inhibitor covalently bound to the enzyme. The kinetics data were analyzed according to known procedures. The apparent pseudo-first-order inactivation rate constants were determined from the slopes of semilogarithmic plots of enzymatic activity remaining versus time using the following equation: [formula] where Et /EO is the amount of active enzyme remaining after time "t".
The assay procedure used was the procedure identified relative to the tests above in Table I.
(kobsd) were determined by plotting in [E]t /[E]o vs time.

[1] = Table IV, derivatives of phenylalanine, read-out: kobsd /[I], inhibition of leukocyte elastase
[2] = Table V, succinimide derivatives
[3] = Table III, inactive: no inhibition at 243fold excess of inhibitor over enzyme, 10min incubation
[4] = Table V, succinimide derivatives, read-out: kobsd /[I], inhibition of leukocyte elastase
[5] = Table II monopotassium sulfonate salts, read-out: k2 /Ki (HLE)
[6] = Table III, inactive: no inhibition at 243fold excess of inhibitor over enzyme, 10min incubation, read-out: kobsd /[I], inhibition of leukocyte elastase

kinact/KI [1]: 318 M⁻¹ s⁻¹
SMILES: COC(=O)C(Cc1cccc(F)c1)NC(=O)n1ccnc1 (stereo not drawn) [Compound 33]

kobsd /[I], inhibition of leukocyte elastase [2]: inactive
SMILES: CS(=O)(=O)ON1C(=O)CCC1=O [H, OSO2CH3]

kobsd /[I], inhibition of leukocyte elastase [3]: inactive
SMILES: O=C(NCc1cccc(C(F)(F)F)c1)S(=O)(=O)O [Compound 13, Table III]

kinact/KI [4]: 1270 M⁻¹ s⁻¹
SMILES: CCCCCCCCS(=O)(=O)ON1C(=O)CC(Cc2ccccc2)C1=O (stereo not drawn) [BENZYL, OSO2(CH2)7 CH3]

kinact/KI [4]: 323 M⁻¹ s⁻¹
SMILES: CN(C)S(=O)(=O)ON1C(=O)CC(Cc2ccccc2)C1=O (stereo not drawn) [BENZYL, OSO2N(CH3)2]

kinact/KI [4]: 1650 M⁻¹ s⁻¹
SMILES: O=C1CC(Cc2ccccc2)C(=O)N1OS(=O)(=O)c1ccc(Br)cc1 (stereo not drawn)

kobsd /[I], inhibition of leukocyte elastase [3]: inactive
SMILES: O=C(Nc1ccc(Cl)cc1)S(=O)(=O)O [Compound 3, Table III]

kobsd /[I], inhibition of leukocyte elastase [3]: inactive
SMILES: O=C(Nc1ccccc1C(F)(F)F)S(=O)(=O)O [Compound 5, Table III]

kinact/KI [5]: 260 M⁻¹ s⁻¹
SMILES: COC(=O)[C@H](CCSC)NC(=O)S(=O)(=O)O [Compound 8, Table II]
Inhibition of HLE (in words) (listed as L-methionine sulfonate salt): also deactivate HLE but were not as effective; also recorded: also inactivate HLE, but not as efficiently; also recorded: effective inhibitors

Inhibition of HLE (in words): devoid of any inhibitory activity
k2 /Ki (HLE) (Table II monopotassium sulfonate salts): inactive
SMILES: COC(=O)[C@H](C)NC(=O)S(=O)(=O)O [Compound 2, Table II]

kinact/KI [1]: 2070 M⁻¹ s⁻¹
SMILES: COC(=O)[C@H](Cc1ccccc1)NC(=O)n1ccnc1 [Compound 28]

kinact/KI [6]: 317 M⁻¹ s⁻¹
SMILES: O=C(NCCc1cccc(F)c1)n1ccccc1=O [Compound 22]

kinact/KI [1]: 57 M⁻¹ s⁻¹
SMILES: COC(=O)C(Cc1cccc(F)c1)NC(=O)S(=O)(=O)O (stereo not drawn) [Compound 31]

kobsd /[I], inhibition of leukocyte elastase [2]: inactive
SMILES: Cc1ccc(S(=O)(=O)ON2C(=O)CCC2=O)cc1

kinact/KI [6]: 4 M⁻¹ s⁻¹
SMILES: O=C(NCCc1ccccc1)S(=O)(=O)O [Compound 16]

SMILES: COC(=O)[C@H](Cc1ccccc1)NC(=O)S(=O)(=O)[O-].[K+] [Compound 9, Table II, N-(Sulfocarbonyl)-L-phenylalanine Methyl Ester, Monopotassium Salt]
kinact/KI [5]: 530 M⁻¹ s⁻¹
Inhibition of HLE (in words) (listed as L-phenylalanine sulfonate salt, Monopotassium Salt): also deactivate HLE but were not as effective; also recorded: also inactivate HLE, but not as efficiently; also recorded: effective inhibitors

kinact/KI [1]: 2330 M⁻¹ s⁻¹
SMILES: COC(=O)[C@H](Cc1ccccc1)NC(=O)n1ccccc1=O [Compound 29]

kinact/KI [1]: 13 M⁻¹ s⁻¹
SMILES: COC(=O)C(Cc1cccc(C(F)(F)F)c1)NC(=O)S(=O)(=O)O (stereo not drawn) [Compound 32]

kinact/KI [4]: 1610 M⁻¹ s⁻¹
SMILES: Cc1ccc(S(=O)(=O)ON2C(=O)CC(Cc3ccccc3)C2=O)cc1 (stereo not drawn)

kobsd /[I], inhibition of leukocyte elastase [3]: inactive
SMILES: O=C(NCc1ccc(C(F)(F)F)cc1)n1ccnc1 [Compound 11, Table III]

kinact/KI [6]: 13500 M⁻¹ s⁻¹
SMILES: O=C(NCCc1cccc(C(F)(F)F)c1)ON1C(=O)CCC1=O [Compound 26]

kinact/KI (Table VI, sulfur-containing amino acid esters, read-out: kobsd /[I], inhibition of HLE): 4230 M⁻¹ s⁻¹
SMILES: CCSC[C@H](NC(=O)n1ccnc1)C(=O)OC [Compound 10, Table VI]

kobsd /[I], inhibition of leukocyte elastase [3]: inactive
SMILES: O=C(Nc1ccccc1C(F)(F)F)n1ccnc1 [Compound 9, Table III]

kinact/KI [4]: 1680 M⁻¹ s⁻¹
SMILES: CCCCS(=O)(=O)ON1C(=O)CC(Cc2ccccc2)C1=O (stereo not drawn) [BENZYL, OSO2(CH2)3 CH3]

kinact/KI [4]: 1170 M⁻¹ s⁻¹
SMILES: O=C1CC(Cc2ccccc2)C(=O)N1OS(=O)(=O)c1ccccc1 (stereo not drawn)

kobsd /[I], inhibition of leukocyte elastase [3]: inactive
SMILES: O=C(NCc1cccc(F)c1)S(=O)(=O)O [Compound 12, Table III]

kobsd /[I], inhibition of leukocyte elastase [3]: inactive
SMILES: O=C(Nc1cccc(C(F)(F)F)c1)S(=O)(=O)O [Compound 6, Table III]

kinact/KI [5]: 920 M⁻¹ s⁻¹
SMILES: CCCC[C@H](NC(=O)S(=O)(=O)O)C(=O)OC [Compound 6, Table II]
Inhibition of HLE (in words) (listed as L-norleucine sulfonate salt): very potent inhibitors; also recorded: effective inhibitors

Inhibition of HLE (in words): inactive
kobsd /[I], inhibition of HLE (Table VI, sulfur-containing amino acid esters): inactive
SMILES: COC(=O)[C@H](CC[S+](C)[O-])NC(=O)S(=O)(=O)O (stereo partly drawn) [Compound 2, Table VI]

kobsd /[I], inhibition of leukocyte elastase [3]: inactive
SMILES: O=C(Nc1ccccc1)S(=O)(=O)O [Compound 1, Table III]

kinact/KI [6]: 927 M⁻¹ s⁻¹
SMILES: O=C(NCCc1ccccc1)ON1C(=O)CCC1=O [Compound 24]
